We go through five compounds from EPA's ToxRefDB 2.

The subject of data set [1] is mouse. Conditions: Carcinogenicity, b6c3f1, Oral, Feed, dose end: 104 week, group: systemic.
Data set [2] relates to rat. Conditions: Carcinogenicity, fischer, Oral, Feed, dose end: 104 week, group: systemic.
Data set [3] deals with rat. Conditions: Prenatal developmental toxicity study, sprague dawley, Inhalation, Whole-Body, dose end: 15 GD, group: maternal.
Data set [4] concerns rabbit. Conditions: Prenatal developmental toxicity study, new zealand white, Inhalation, Whole-Body, dose end: 18 GD, group: maternal.
The subject of data set [5] is rat. The conditions noted are these: Subchronic inhalation toxicity, fischer, Whole-Body, dose end: 13 week, group: systemic.
Data set [6] has as its system rat. Conditions: Carcinogenicity, fischer, Oral, Feed, dose end: 80 week, group: systemic.
Data set [7] deals with mouse. The conditions noted are these: Carcinogenicity; b6c3f1; Oral; Feed; dose end: 80 week; group: systemic; systemic / pathology microscopic / liver / carcinoma + systemic / pathology microscopic / liver / neoplastic nodule + systemic / in life ….
For data set [8], the system named is mouse. The conditions noted are these: Subchronic oral toxicity in rodents, b6c3f1, Water, dose end: 13 week, group: systemic.
Data set [9] concerns rat. Conditions: Multigenerational reproductive toxicity study, sprague dawley, Oral, Gavage/Intubation, dose end: 2 generation, group: parental.
Data set [10] deals with rat. The conditions noted are these: Subchronic oral toxicity in rodents, fischer, Water, dose end: 13 week, group: systemic.
The test system of data set [11] is rat. Conditions: Prenatal developmental toxicity study, sprague dawley, Oral, Gavage/Intubation, dose end: 15 GD, group: maternal.
Data set [12] concerns rat. Conditions: Prenatal developmental toxicity study, sprague dawley, Oral, Gavage/Intubation, dose end: 15 GD, group: maternal. This is another data set of the same source.
Data set [13] deals with rat. The conditions noted are these: Neurotoxicity screening battery; sprague dawley; Oral; Gavage/Intubation; dose end: 13 week; group: cannot be grouped; systemic / hematology / [other] / [other] + systemic / hematology / heinz body / heinz body + systemic / hematology / leukocyte (wbc) count ….
Data set [14] deals with mouse. Conditions: Sub-acute repeat dose toxicity, b6c3f1, Oral, Water, dose end: 14 day, group: systemic.
The subject of data set [15] is rabbit. The conditions noted are these: Prenatal developmental toxicity study, new zealand white, Oral, Gavage/Intubation, dose end: 18 GD, group: maternal.
The test system of data set [16] is mouse. The conditions noted are these: Combined chronic toxicity/carcinogenicity; cd1; Inhalation; Whole-Body; dose end: 18 month; group: systemic; systemic / pathology microscopic / nose / [other] + systemic / pathology microscopic / nose / degeneration + systemic / pathology ….
The subject of data set [17] is rat. The conditions noted are these: Sub-acute repeat dose toxicity, fischer, Oral, Water, dose end: 14 day, group: systemic.
Data set [18] has as its system rabbit. The conditions noted are these: Prenatal developmental toxicity study, new zealand white, Oral, Gavage/Intubation, dose end: 18 GD, group: maternal. This is another data set of the same source.
Data set [19] relates to rat. Conditions: Combined chronic toxicity/carcinogenicity; fischer; Inhalation; Whole-Body; dose end: 26 month; group: systemic; systemic / pathology microscopic / spleen / congestion + systemic / pathology microscopic / eye / degeneration + systemic / pathology ….
The test system of data set [20] is rat. Conditions: Sub-acute repeat dose toxicity, sprague dawley, Oral, Feed, dose end: 28 day, group: systemic.
The mark [21] stands for this setting: systemic / in life observation / body weight / body weight.
Setting [22] is: systemic / in life observation / body weight / body weight + systemic / pathology microscopic / liver / hepatocellular carcinoma + systemic….
[23] abbreviates: systemic / in life observation / body weight / body weight + systemic / pathology microscopic / urinary bladder / hyperplasia.
Where [24] appears, read: systemic / in life observation / body weight / body weight + systemic / pathology microscopic / urinary bladder / hyperplasia + systemic / ….
The mark [25] stands for this setting: systemic / in life observation / body weight / body weight gain + systemic / in life observation / clinical signs / red or crusty deposits ….
Where [26] appears, read: systemic / in life observation / food consumption / food consumption.
Where [27] appears, read: systemic / in life observation / body weight / body weight gain + systemic / in life observation / clinical signs / oral discharge + ….
[28] abbreviates: systemic / organ weight / adrenal gland / absolute + systemic / organ weight / adrenal gland / relative to body weight + systemic / organ ….
[29] abbreviates: systemic / in life observation / body weight / body weight + systemic / pathology microscopic / thyroid gland / hyperplasia.
The mark [30] stands for this setting: systemic / in life observation / body weight / body weight + systemic / pathology microscopic / thyroid gland / hyperplasia + systemic / in ….
[31] abbreviates: systemic / pathology microscopic / nose / degeneration + systemic / pathology microscopic / spleen / hematopoietic cell proliferation + ….
[32] abbreviates: systemic / hematology / erythrocyte (rbc) count differential / erythrocyte (rbc) + systemic / hematology / hematocrit (hct) / hematocrit (….
[33] abbreviates: systemic / pathology microscopic / liver / hematopoietic cell proliferation + systemic / pathology microscopic / liver / hemosiderosis + ….
Setting [34] is: systemic / hematology / erythrocyte (rbc) count differential / erythrocyte (rbc) + systemic / hematology / hemoglobin (hgb) / hemoglobin (….
Setting [35] is: systemic / hematology / methemoglobin / methemoglobin + systemic / hematology / reticulocyte / reticulocyte.
The mark [36] stands for this setting: systemic / hematology / methemoglobin / methemoglobin + systemic / hematology / reticulocyte / reticulocyte + systemic / in life observation….
Where [37] appears, read: systemic / in life observation / body weight / body weight + systemic / in life observation / body weight / body weight gain + systemic / in….
The mark [38] stands for this setting: systemic / pathology gross / spleen / enlarged.
[39] abbreviates: systemic / in life observation / body weight / body weight + systemic / in life observation / water consumption / water consumption.
Setting [40] is: reproductive / reproductive performance / aborted / aborted + reproductive / reproductive performance / resorptions / resorptions + systemic….
Where [41] appears, read: systemic / in life observation / body weight / body weight + systemic / in life observation / water consumption / water consumption + ….
Setting [42] is: systemic / clinical chemistry / lactic acid dehydrogenase (ldh) / lactic acid dehydrogenase (ldh) + systemic / clinical chemistry / sorbitol….

Structures are written as SMILES.

In the data set on mouse [1] (setting [21]), `COc1ccc(C)cc1N` [2-Methoxy-5-methylaniline] had an LOAEL of 330 mg/kg/day and an NOAEL below 330 mg/kg/day. Moreover, in the data set on mouse [1] (setting [22]), the LEL came out at 330 mg/kg/day and the NEL was below 330 mg/kg/day. In the data set on rat [2] (setting [23]), the LOAEL was determined as 250 mg/kg/day and the NOAEL was below 250 mg/kg/day. In the data set with rat [2] (setting [24]), the LEL was 250 mg/kg/day and the NEL is below 250 mg/kg/day.
As to `CC(C)c1ccccc1` [Cumene], the values for the LOAEL in the data set with rat [3] (setting [25]), in the data set with rabbit [4] (setting [27]) and in the data set on rat [5] (setting [28]) were above 1200 ppm, above 2300 ppm and above 1200 ppm, respectively. For the same compound, the NEL in the data set with rat [3] (setting [25]) was 100 ppm; with rabbit [4] (setting [26]), below 500 ppm; in the data set with rat [5] (systemic / in life observation / clinical signs / body temperature + systemic / in life observation / clinical signs / motor activity) it was 100 ppm. Besides, the NOAEL is at least 1200 ppm in the data set on rat [3] (setting [25]), at least 2300 ppm in the data set on rabbit [4] (setting [27]) and at least 1200 ppm with rat [5] (setting [28]). Further, the LEL with rat [3] (setting [26]), with rabbit [4] (setting [26]) and in the data set with rat [5] (systemic / in life observation / clinical signs / motor activity + systemic / clinical chemistry / glucose / glucose + systemic / hematology…) was 500 ppm in each case.
For `COP(=O)(OC)O/C(=C/Cl)c1cc(Cl)c(Cl)cc1Cl` [Tetrachlorovinphos], in the data set with rat [6] (setting [29]), the LOAEL is 212 mg/kg/day and the NOAEL is below 212 mg/kg/day. Moreover, in the data set on rat [6] (setting [30]), the LEL stood at 212 mg/kg/day and the NEL was below 212 mg/kg/day. In addition, in the data set with mouse [7], the LEL is 1200 mg/kg/day, the lowest observed adverse effect level (LOAEL) is above 2400 mg/kg/day, the NEL was below 1200 mg/kg/day and the NOAEL is at least 2400 mg/kg/day.
With `CCC(C)=NO` [2-Butanone oxime], the LOAEL in the data set on mouse [8] (systemic / pathology microscopic / nose / degeneration + systemic / pathology microscopic / spleen / hematopoietic cell proliferation) was 755 mg/kg/day; with rat [9] (setting [32]), above 200 mg/kg/day; in the data set on rat [10] (setting [32]), 50 mg/kg/day; in the data set with rat [11] (setting [36]) it was above 400 mg/kg/day; in the data set on rat [12] (setting [37]) it was above 600 mg/kg/day; with rat [13], above 400 mg/kg/day. The LOAEL with mouse [14] (setting [21]) was 475 mg/kg/day; with rabbit [15] (setting [40]), above 80 mg/kg/day; with mouse [16], above 375 ppm; with rat [17] (setting [21]), 280 mg/kg/day; in the data set with rabbit [18] (setting [40]), above 40 mg/kg/day; in the data set with rat [19], above 375 ppm. Also, the NEL is 110 mg/kg/day in the data set with mouse [8] (setting [31]); below 10 mg/kg/day in the data set with rat [9] (setting [33]); below 25 mg/kg/day in the data set with rat [10] (setting [34]); below 25 mg/kg/day with rat [11] (setting [35]); below 60 mg/kg/day with rat [12] (setting [38]); below 40 mg/kg/day with rat [13]. The NEL was 300 mg/kg/day in the data set on mouse [14] (setting [39]); below 10 mg/kg/day in the data set with rabbit [15] (setting [35]); below 15 ppm in the data set with mouse [16]; 70 mg/kg/day in the data set on rat [17] (setting [41]); 14 mg/kg/day in the data set with rabbit [18] (setting [40]); below 15 ppm with rat [19]. Further, the no observed adverse effect level (NOAEL) in the data set with mouse [8] (setting [31]) was 515 mg/kg/day; in the data set with rat [9] (setting [32]), at least 200 mg/kg/day; in the data set on rat [10] (setting [32]), 25 mg/kg/day; in the data set on rat [11] (setting [36]), at least 400 mg/kg/day; in the data set with rat [12] (setting [37]), at least 600 mg/kg/day; in the data set on rat [13], at least 400 mg/kg/day. Besides, the NOAEL was 300 mg/kg/day with mouse [14] (setting [39]); at least 80 mg/kg/day with rabbit [15] (setting [40]); at least 375 ppm in the data set on mouse [16]; 130 mg/kg/day in the data set on rat [17] (setting [41]); at least 40 mg/kg/day in the data set with rabbit [18] (setting [40]); at least 375 ppm with rat [19]. Also, the LEL in the data set on mouse [8] (systemic / pathology microscopic / urinary bladder / hyperplasia) came out at 200 mg/kg/day; in the data set with rat [9] (setting [33]), 10 mg/kg/day; in the data set on rat [10] (setting [34]), 25 mg/kg/day; with rat [11] (setting [35]), 25 mg/kg/day; with rat [12] (setting [38]) it was 60 mg/kg/day; in the data set with rat [13], 40 mg/kg/day. The LEL with mouse [14] (setting [39]) was 475 mg/kg/day; with rabbit [15] (setting [35]) it was 10 mg/kg/day; in the data set on mouse [16], 15 ppm; in the data set with rat [17] (systemic / in life observation / water consumption / water consumption + systemic / organ weight / spleen / absolute + systemic / organ …), 130 mg/kg/day; with rabbit [18] (systemic / in life observation / body weight / body weight gain + systemic / in life observation / food consumption / food consumption) it was 24 mg/kg/day; in the data set on rat [19], 15 ppm.
Regarding `ClC(Cl)(Cl)c1ccccc1` [Benzotrichloride], in the data set on rat [20] (setting [42]), the LOAEL was above 25 mg/kg/day, the NEL was 0.025 mg/kg/day and the NOAEL was at least 25 mg/kg/day. The LEL in the data set with rat [20] (systemic / clinical chemistry / sorbitol dehydrogenase / sorbitol dehydrogenase) was determined as 0.25 mg/kg/day.
